pIC50: −log10 of the molar value.
Key:
AAK1 = AAK1 (Homo sapiens (Human), UniProt Q2M2I8); assay: pAP2M1 cell-based assay (In-Cell Western); conditions: Hela cells co-transfected with AP2M1 and AAK1, 3 hr treatment, Phospho-AP2M1 (Thr156)
Source text: pAP2M1 Cell-Based Assay (In-Cell Western):
The plate was read on Licor Odyssey CLx imaging system (LICOR) to acquire fluorescence intensity at 700 channel and 800 channel.
Data analysis: Fluorescence intensity at 700 channel served as internal standard and 800 channel were normalized with 700 channel.

[1] = biological target: BIKE (amino acids S38-E345) (K320A, K321A) (Homo sapiens (Human), UniProt Q9NSY1, K320A/K321A); assay: BIKE pSENs assay; assay type: biochemical
Procedure: The recombinant proteins were independently expressed in Esherichia coli BL21(DE3) cells cultured in Luria-Bertani (LB) medium until OD600 reached 0.6-0.8, then cooled to 15° C., and supplemented with 0.5 mM isopropyl 1-thio-D-galactopyranoside (IPTG) induce protein expression 16 h. Cells were harvested and resuspended in lysis buffer (50 mM HEPES pH 7.5, 500 mM NaCl, 5 mM imidazole, 5% glycerol, 0.5 mM Tris (2-carboxyethyl) phosphine (TCEP), cOmplete Protease Inhibitor Tablet (Roche)) and lysed by microfluidics high pressure homogenizer (UH-06, Union-Biotech). Proteins were purified using Ni-Affinity chromatography (His FF column, Bestchrom) and eluted stepwise in binding buffer with 20-300 mM imidazole. Removal of the hexahistidine tag was performed at 4° C. overnight using recombinant TEV protease and reacted with BirA to obtain the corresponding biotinylated-AAK1. BIKE or GAK proteins. Further separated in the reverse Strep column (Strep-Tactin® XT, IBA). The Biotin elution sample was collected containing untagged biotinylated protein was then purified by Ion-exchange chromatography (Mono Q 10/100 GL, Cytiva) and Size-exclusion chromatography (HiLoad 16/600 Superdex 200 pg, Cytiva). The pure protein was stored in a storage buffer 50 mM HEPES (pH 7.5), 300 mM NaCl, 5% glycerol at −80° C. Protein were characterized by SDS-PAGE. LC-MS and aSEC.
BIKE protein was dissolved at 20 nM in 1× enzyme solution (50 mM HEPES pH7.5, 10 mM MgCl2, 1 mM DTT, 1% glycerol, 0.5 mM EGTA, 0.01% Briji35, 0.02% BSA) and 12.5 ul was incubated with 250 nl DMSO or 250 nl compound in DMSO at 25° C. for 15 min. The reaction was started by addition of 12.5 ul of 30 uM AQT0759 (Assayquant, CSKS-AQT0759B) and 40 uM ATP which were diluted in 1× substrate dilution buffer (50 mM HEPES pH7.5, 10 mM MgCl2. 1 mM DTT, 1% glycerol, 0.5 mM EGTA, 0.01% Briji35).

[2] = biological target: AAK1 (amino acids T27-A365) (Homo sapiens (Human), UniProt Q2M2I8); assay: AAK1 pSENs assay; assay type: biochemical; conditions: for AAK1:GAK pSENs Selectivity: ratio of AAK1 pSENs activity to GAK pSENs activity; for pIC50: read-out: AAK1 pSENs:EIC50
Summary of the method: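 Untagged, biotinylated E. coli-expressed AAK1 at 20 nM preincubated with compound 15 min at 25° C in HEPES pH 7.5 buffer with 10 mM MgCl2 and 1 mM DTT. Reaction started with AQT0759 and ATP, added as 30 uM and 70 uM solutions in equal volume.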

[3] = biological target: GAK (amino acids Q25-N335) (Homo sapiens (Human), UniProt O14976); assay: GAK pSENs assay; assay type: biochemical
Chain of GAK (amino acids Q25-N335) (O14976 25-335): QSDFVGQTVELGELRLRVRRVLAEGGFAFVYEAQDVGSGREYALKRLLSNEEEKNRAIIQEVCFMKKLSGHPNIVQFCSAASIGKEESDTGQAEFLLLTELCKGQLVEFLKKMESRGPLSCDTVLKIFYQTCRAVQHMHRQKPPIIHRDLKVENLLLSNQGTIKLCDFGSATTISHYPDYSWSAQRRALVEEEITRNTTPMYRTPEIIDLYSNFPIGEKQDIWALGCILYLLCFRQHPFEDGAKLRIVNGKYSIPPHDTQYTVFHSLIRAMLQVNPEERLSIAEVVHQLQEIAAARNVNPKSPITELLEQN

Chain of BIKE (amino acids S38-E345) (K320A, K321A) (Q9NSY1 38-345 K320A/K321A): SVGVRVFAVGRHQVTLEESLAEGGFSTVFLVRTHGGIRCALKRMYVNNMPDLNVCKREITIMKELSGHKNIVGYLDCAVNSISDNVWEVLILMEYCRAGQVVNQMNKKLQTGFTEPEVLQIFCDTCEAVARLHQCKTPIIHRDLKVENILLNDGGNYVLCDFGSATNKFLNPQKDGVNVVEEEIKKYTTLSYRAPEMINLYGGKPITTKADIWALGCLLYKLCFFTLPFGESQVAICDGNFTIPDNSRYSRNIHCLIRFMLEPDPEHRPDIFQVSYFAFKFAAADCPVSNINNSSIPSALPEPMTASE
Chain of AAK1 (amino acids T27-A365) (Q2M2I8 27-365): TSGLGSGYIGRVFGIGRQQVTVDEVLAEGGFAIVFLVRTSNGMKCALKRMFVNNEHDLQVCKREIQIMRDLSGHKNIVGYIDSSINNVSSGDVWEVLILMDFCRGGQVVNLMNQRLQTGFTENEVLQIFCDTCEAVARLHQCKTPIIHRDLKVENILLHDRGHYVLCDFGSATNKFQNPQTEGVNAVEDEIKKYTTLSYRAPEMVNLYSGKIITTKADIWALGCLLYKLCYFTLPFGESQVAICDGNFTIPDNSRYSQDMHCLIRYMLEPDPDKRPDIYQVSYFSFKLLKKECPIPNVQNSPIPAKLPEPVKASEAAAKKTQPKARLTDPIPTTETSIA
Chain of AAK1 (Q2M2I8 whole entry): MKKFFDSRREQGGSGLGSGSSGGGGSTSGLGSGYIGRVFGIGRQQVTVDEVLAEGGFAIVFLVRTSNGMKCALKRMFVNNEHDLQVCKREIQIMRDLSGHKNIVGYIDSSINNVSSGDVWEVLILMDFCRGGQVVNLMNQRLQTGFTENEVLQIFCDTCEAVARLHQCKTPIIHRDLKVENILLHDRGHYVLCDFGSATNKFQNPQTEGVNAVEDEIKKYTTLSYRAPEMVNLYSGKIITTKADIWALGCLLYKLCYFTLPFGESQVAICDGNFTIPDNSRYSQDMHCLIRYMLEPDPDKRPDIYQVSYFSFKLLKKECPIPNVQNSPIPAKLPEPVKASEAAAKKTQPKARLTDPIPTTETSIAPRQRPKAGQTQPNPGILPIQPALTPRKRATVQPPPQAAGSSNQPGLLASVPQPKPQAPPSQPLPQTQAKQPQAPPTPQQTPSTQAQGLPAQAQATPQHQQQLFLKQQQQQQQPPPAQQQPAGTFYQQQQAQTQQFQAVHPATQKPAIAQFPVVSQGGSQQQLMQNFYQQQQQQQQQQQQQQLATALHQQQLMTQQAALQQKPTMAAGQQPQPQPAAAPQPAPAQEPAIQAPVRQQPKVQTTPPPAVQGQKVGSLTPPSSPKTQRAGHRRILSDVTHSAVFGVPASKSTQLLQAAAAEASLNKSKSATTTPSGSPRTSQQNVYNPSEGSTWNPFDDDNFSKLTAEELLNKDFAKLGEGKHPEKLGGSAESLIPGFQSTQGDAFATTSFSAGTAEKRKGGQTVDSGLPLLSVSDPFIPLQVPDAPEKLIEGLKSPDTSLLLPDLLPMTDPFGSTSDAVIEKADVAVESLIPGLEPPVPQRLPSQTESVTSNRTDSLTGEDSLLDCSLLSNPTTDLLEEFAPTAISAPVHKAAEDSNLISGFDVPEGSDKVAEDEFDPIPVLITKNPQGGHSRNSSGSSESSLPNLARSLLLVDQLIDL

Compound | pIC50 (AAK1) | pIC50 [1] | AAK1:GAK pSENs Selectivity [2] | pIC50 [2] | pIC50 [3]
C[C@]1(OC(=O)N2CCN(c3ccn4ncc(-c5cccnc5OC5CC5)c4n3)CC2)CCNC1 (single isomer, unassigned) [Compound I-13] | 7.30 to 9.00 | 7.30 to 9.00 | B (B: 0.016-0.075) | 7.30 to 9.00 | 6.82 to 7.29
O=C1C[C@H](OC(=O)N2CCN(c3ccn4ncc(-c5cccnc5OC5CNC5)c4n3)CC2)CN1 [Compound I-43, [(3S)-5-Oxopyrrolidin-3-yl]4-[3-[2-(azetidin-3-yloxy)-3-pyridyl]pyrazolo[1,5-a]pyrimidin-5-yl]piperazine-1-carboxylate] | < 5.82 | < 5.82 | D (D: 0.16-1.00) | < 5.82 | < 5.82
CN1C[C@@H](OC(=O)N2CCN(c3nc4c(-c5cccnc5OC5CC5)cnn4cc3O)CC2)CC1=O [Compound I-110, [(3S)-1-methyl-5-oxo-pyrrolidin-3-yl]-4-[3-[2-(cyclopropoxy)-3-pyridyl]-6-hydroxy-pyrazolo[1,5-a]pyrimidin-5-yl]piperazine-1-carboxylate] | – | < 5.82 | E (E: >1.00) | – | < 5.82

Continued, values first:

pIC50 (AAK1) | pIC50 [1] | AAK1:GAK pSENs Selectivity [2] | pIC50 [2] | pIC50 [3] | Compound
– | < 5.82 | D (D: 0.16-1.00) | – | < 5.82 | CN1CC(Oc2ncccc2-c2cnn3ccc(N4CCN(C(=O)O[C@@H]5CNC(=O)C5)CC4)nc23)C1 [Compound I-44, (S)-5-Oxopyrrolidin-3-yl 4-(3-(2-((1-methylazetidin-3-yl)oxy)pyridin-3-yl)pyrazolo[1,5-a]pyrimidin-5-yl)piperazine-1-carboxylate]
– | < 5.82 | C (C: 0.076-0.15) | – | < 5.82 | Cc1cn2ncc(-c3cccnc3OC3CC3)c2nc1N1CCN(C(=O)O[C@H]2CC(=O)N(C)C2)CC1 [Compound I-111, [(3S)-1-methyl-5-oxo-pyrrolidin-3-yl]-4-[3-[2-(cyclopropoxy)-3-pyridyl]-6-methyl-pyrazolo[1,5-a]pyrimidin-5-yl]piperazine-1-carboxylate]

Source: US20250270222A1, “AP2 ASSOCIATED KINASE 1 INHIBITORS AND USES THEREOF” (Satellos Bioscience Inc., priority 2023, published 2025)
